Data taken from patent publication US10220033B2, “Substituted benzoxazepine for cancer therapy” (University of Cape Town, priority 2014, dated 2019).
Read-outs that look alike come from different tables or passages of the source.

Columns and labels:
[1] = tested on: FG0 normal skin fibroblasts (non-cancer); experiment: MTT assay for cell viability, IC50 determination; assay type: cell-based; details: Skin fibroblast, 48 hours
Experimental: (§1) Cells were plated in 96-well plates and treated with varying concentrations of a test compound for 48 hours, after which MTT dye, 3-(4,5-dimethylthiazol-2-yl)-2,5-diphenyltetrazolium bromide (Sigma), was added, and crystals solubilised 4 hours later using Solubilisation Reagent (10% SLS in 0.01 M HCl). Absorbencies were measured at 595 nm the following day using a BioTek microplate spectrophotometer (Winooski, Vt., USA) and IC50 curves were generated using GraphPad Prism.

[2] = tested on: HeLa cervical cancer cell line; experiment: MTT assay for cell viability, IC50 determination; assay type: cell-based; details: Homo sapiens, HeLa, HeLa, read-out: IC50
Experimental: as §1

[3] = tested on: CaSki cervical cancer cell line; experiment: MTT assay for cell viability, IC50 determination; assay type: cell-based; details: Homo sapiens, Ca-Ski, read-out: IC50
Experimental: as §1

cancer cell lines = experiment: MTT cell viability, summary statements over panels of cancer cell lines; assay type: cell-based; details: CaSki and HeLa (Tables 2 and 3); read-out: IC50 values (cancer cell-killing effects)
Experimental: as §1

[4] = tested on: HeLa cancer cells and FG0 non-cancer cells; experiment: Cell proliferation monitored using the MTT assay (FIGS. 6 and 7); assay type: cell-based; details: increasing concentrations; HeLa and FG0 (FIGS. 6 and 7)
[5] = tested on: NFAT transcriptional activity in NFAT-transfected HeLa cells; experiment: NFAT luciferase reporter assay; assay type: cell-based; details: stimulated with TPA and ionomycin (FIGS. 16-20)
Experimental: To assay for NFAT luciferase activity, 30 000 HeLa cells were plated per well in 24-well plates, and transfected with 50 ng GFP-NFAT plasmid (Addgene plasmid #24219, gift of Jerry Crabtree (Beals C R, Clipstone N A, Ho S N, Crabtree G R. Nuclear localization of NF-ATc by a calcineurin-dependent, cyclosporin-sensitive intramolecular interaction. Genes Dev 1997 Apr. 1; 11(7):824-34)), 50 ng NFAT-luciferase (Addgene plasmid #10959, gift of Toren Finkel (Ichida M, Finkel T. Ras regulates NFAT3 activity in cardiac myocytes. J Biol Chem 2001 Feb. 2; 276(5):3524-30)), and 5 ng pRL-TK, using 0.4 μl Genecellin™ Transfection Reagent (Celtic Molecular Diagnostics, South Africa). The NFAT-luciferase reporter plasmid contains three tandem repeats of a 30 bp fragment of the IL-2 promoter known to bind NFAT. The following day cells were treated with 10 or 15 μM Compound A and after an overnight incubation, stimulated with 100 nM TPA (Sigma) and 1.3 μM Ionomycin (Santa Cruz Biotechnology, Santa Cruz, Calif., USA) for 5 hours, following which luciferase activity was measured.
An assay for nuclear NFAT following ionomycin and Compound A treatment was carried out, using an NFAT-luciferase reporter that is activated by nuclear NFAT. The phorbol ester TPA was used to co-stimulate NFAT, as it has been shown previously that TPA and ionomycin elicit synergistic stimulation of NFAT luciferase activity (Northrop J P, Ullman K S, Crabtree G R. Characterization of the nuclear and cytoplasmic components of the lymphoid-specific nuclear factor of activated T cells (NF-AT) complex. J Biol Chem 1993 Feb. 5; 268(4):2917-23).

[6] = tested on: PARP cleavage in CaSki cells; experiment: PARP cleavage analysis by Western Blot; assay type: cell-based; details: IC50 and twice the IC50 (FIG. 5), varying concentrations 12 hours (FIG. 26)
Experimental: CaSki cells were treated with varying concentrations of Compound A for 12 hours, following which cells and cell floaters were harvested using RIPA buffer (10 mM Tris-Cl, pH 7.4, 150 mM NaCl, 1% sodium deoxycholate, 0.1% SDS, 1% Triton X-100, 1× complete protease inhibitor cocktail (Roche, Mannheim, Germany)) and Western Blot analysis performed, using a rabbit anti-Parp1/2 (H-250) antibody (sc-7150).

[7] = tested on: p65 nuclear import (Kpnβ1 cargo protein); experiment: Percentage of nuclear and cytoplasmic p65 (FIG. 4); assay type: cell-based
[8] = tested on: SVWI38 transformed cell line; experiment: MTT assay for cell viability, IC50 determination; assay type: cell-based; details: SVWI38; compound in salt form
Experimental: as §1

[9] = tested on: MCF7 breast cancer cell line; experiment: MTT assay for cell viability, IC50 determination; assay type: cell-based; details: Homo sapiens, compound in salt form
Experimental: as §1

[10] = tested on: WI38 non-cancer cell line; experiment: MTT assay for cell viability, IC50 determination; assay type: cell-based; details: Homo sapiens, WI-38; WI38; compound in salt form
Experimental: as §1

[11] = MTT assay for cell viability, IC50 determination; assay type: cell-based; details: Homo sapiens, MCF-12A; MCF12A; compound in salt form
Experimental: as §1

[12] = tested on: EPC2 (EPC2-hTERT normal immortalised oesophageal epithelial cells); experiment: MTT assay for cell viability, IC50 determination; assay type: cell-based; details: Homo sapiens, compound in salt form
Experimental: as §1

[13] = tested on: KYSE150 oesophageal cancer cell line; experiment: MTT assay for cell viability, IC50 determination; assay type: cell-based; details: Homo sapiens, KYSE-150; Kyse150; compound in salt form
Experimental: as §1

[14] = tested on: MDA-MB-231 breast cancer cell line; experiment: MTT assay for cell viability, IC50 determination; assay type: cell-based; details: Homo sapiens, compound in salt form
Experimental: as §1

[15] = tested on: DMB normal skin fibroblasts (non-cancer); experiment: MTT assay for cell viability, IC50 determination; assay type: cell-based; details: Skin fibroblast; DMB; compound in salt form
Experimental: as §1

[16] = tested on: WHCO5 oesophageal cancer cell line; experiment: MTT assay for cell viability, IC50 determination; assay type: cell-based, human; details: Homo sapiens, compound in salt form
Experimental: as §1

**Q.** For `Cc1cccc(CN2CCOc3c(cc(-c4ccc(C)s4)cc3OCC3CCCN(C)C3)C2)n1` (stereo not shown) [Compound II, 9-[(1-methylpiperidin-3-yl)methoxy]-4-[(6-methylpyridin-2-yl)methyl]-7-(5-methylthiophen-2-yl)-3,5-dihydro-2H-1,4-benzoxazepine], which IC50 [1] is on record?
**A.** 17.2 µM

**Q.** What about the IC50 ([2]; 48 h, 48 hours, MTT) of the same compound?
**A.** 14.4 µM

**Q.** And the IC50 ([3]; 48 h, MTT)?
**A.** 11.4 µM

**Q.** And the IC50 (cancer cell lines)?
**A.** < 50 µM

**Q.** What about the cell proliferation [4] of the same compound?
**A.** inhibit cell proliferation

**Q.** And the “NFAT activation (NFAT-luciferase reporter)” value [5]?
**A.** significantly diminished NFAT activation

**Q.** And the “PARP cleavage as an indicator of apoptosis” value [6]?
**A.** induce cancer cell death via apoptosis

**Q.** And the “nuclear import of Kpnβ1 cargo protein (percentage of nuclear p65 relative to cytoplasmic p65)” value [7]?
**A.** inhibit the nuclear import of Kpnβ1 cargo protein

**Q.** For `Cc1cccc(N[C@@H](c2ccc(N(C)C)cc2)c2ccc3ccc(C)nc3c2O)n1` [Compound IX, 7-[(4-dimethylaminophenyl)-[(6-methyl-2-pyridyl)amino]methyl]-2-methyl-quinolin-8-ol], which IC50 [8] is on record?
**A.** 15.3 µM

**Q.** And the IC50 [9]?
**A.** 50.2 µM

**Q.** What about the IC50 [10] of the same compound?
**A.** 20.8 µM

**Q.** What about the IC50 [11] of the same compound?
**A.** 27.8 µM

**Q.** And the IC50 ([2]; compound in salt form)?
**A.** 12.3 µM

**Q.** What about the IC50 [12] of the same compound?
**A.** 5.78 µM

**Q.** And the IC50 [13]?
**A.** 9.08 µM

**Q.** And the IC50 [14]?
**A.** 10.4 µM

**Q.** What about the IC50 [15] of the same compound?
**A.** 40.9 µM

**Q.** What about the IC50 ([3]; 48 h, MTT) of the same compound?
**A.** 26.6 µM

**Q.** What about the IC50 ([3]; compound in salt form) of the same compound?
**A.** 26.6 µM

**Q.** And the IC50 [16]?
**A.** 22.4 µM

**Q.** Which IC50 [1] does the source give for `CNC(=O)[C@@H]1C[C@H](NCc2ccc(OC)c3ccccc23)CN1Cc1ccccc1` [Compound III, (2S,4S)-1-benzyl-4-{[(4-methoxynaphthalen-1-yl)methyl]amino}-N-methylpyrrolidine-2-carboxamide] here?
**A.** 44.9 µM

**Q.** And the IC50 ([2]; 48 h, 48 hours, MTT)?
**A.** 19.9 µM

**Q.** What about the IC50 ([3]; 48 h, MTT) of the same compound?
**A.** 34.1 µM

**Q.** And the IC50 (cancer cell lines)?
**A.** < 50 µM

**Q.** And the cell proliferation [4]?
**A.** inhibit cell proliferation

**Q.** What about the “NFAT activation (NFAT-luciferase reporter)” value [5] of the same compound?
**A.** significantly diminished NFAT activation

**Q.** What about the “PARP cleavage as an indicator of apoptosis” value [6] of the same compound?
**A.** induce cancer cell death via apoptosis

**Q.** What about the “nuclear import of Kpnβ1 cargo protein (percentage of nuclear p65 relative to cytoplasmic p65)” value [7] of the same compound?
**A.** inhibit the nuclear import of Kpnβ1 cargo protein
